The ED50 is the dose that gives a 50% effect, or the effect in half of the subjects.

This passage reports ED50 and MIC results from patent US20070049564A1 (Wyeth, priority 2005, published 2007).

In one assay the test system is E. coli #311. Put plainly: In vivo activity (oral, iv; ED50) against E. coli in mice. The conditions noted are these: Escherichia coli. From the text: . […] Smith and E. Coli #311 in mammals.
Results of the tests (MIC, oral and IV) are list in Table 7.

A further assay deals with Staph. Put plainly: Range of MIC for Staph. strains, including MRSA. The conditions noted are these: Staphylococcus aureus.
Another assay relates to Staph. aureus Smith. The experiment in a line: In vivo activity (oral, iv; ED50) against Staph. aureus Smith in mice.
A further assay deals with E. coli. The experiment in a line: Range of MIC for E. coli strains. The conditions noted are these: Escherichia coli.
Setting [1] is: single intravenous dose (SIV), read-out: ED50 E. coli #311 SIV.
[2] abbreviates: single oral dose (SOD), read-out: ED50 E. coli #311 SOD.
Where [3] appears, read: MRSA, read-out: Range of MIC, Staph (Mouse Serum).
[4] abbreviates: Staphylococcus aureus, in Mus musculus, po, read-out: ED50 Staph Smith SOD.
Where [5] appears, read: iv, read-out: ED50 Staph Smith SIV.
Setting [6] is: 20 h, read-out: Range of MIC, E. coli (Mouse Serum).

In brackets after ≈: the same amount, converted by molar mass. Like-named read-outs stand apart in the source and are kept apart here.

Protocol for Staph. aureus Smith: Representative examples of compounds of Formula I were tested for the oral efficacy using S. aureus Smith in mice.

As for `CC(C)Oc1ccc(C(=O)OCOC(=O)N(CC(=O)Nc2cc(N(C)C)c3c(c2O)C(=O)C2=C(O)[C@]4(O)C(=O)C(C(N)=O)=C(O)[C@@H](N(C)C)[C@@H]4C[C@@H]2C3)C(C)(C)C)cc1` [Example 96, ({[(2-{[(5aR,6aS,7S,10aS)-9-(aminocarbonyl)-4,7-bis(dimethylamino)-1,8,10a,11-tetrahydroxy-10,12-dioxo-5,5a,6,6a,7,10,10a,12-octahydrotetracen-2-yl]amino}-2-oxoethyl)(tert-butyl)amino]carbonyl}oxy)methyl 4-isopropoxybenzoate], the ED50 in the assay with E. coli #311 (setting [1]) is 2 to 4 mg/kg; in the assay with E. coli #311 (setting [2]), above 32 mg/kg; with Staph. aureus Smith (setting [4]), 16 to 32 mg/kg; in the assay with Staph. aureus Smith (setting [5]), 1 to 2 mg/kg. Moreover, the MIC in the assay on Staph. (setting [3]) was 0.25 to 1 µg/mL (≈ 0.304 to 1.22 µM); in the assay with Staph. (MRSA, read-out: Range of MIC, Staph (Water)), 4 to 16 µg/mL (≈ 4.87 to 19.5 µM); with E. coli (setting [6]), 0.25 to 1 µg/mL (≈ 0.304 to 1.22 µM).

As for `CCCCCCCOc1ccc(C(=O)OCOC(=O)N(CC(=O)Nc2cc(N(C)C)c3c(c2O)C(=O)C2=C(O)[C@]4(O)C(=O)C(C(N)=O)=C(O)[C@@H](N(C)C)[C@@H]4C[C@@H]2C3)C(C)(C)C)cc1` [Example 102, ({[(2-{[(5aR,6aS,7S,10aS)-9-(aminocarbonyl)-4,7-bis(dimethylamino)-1,8,10a,11-tetrahydroxy-10,12-dioxo-5,5a,6,6a,7,10,10a,12-octahydrotetracen-2-yl]amino}-2-oxoethyl)(tert-butyl)amino]carbonyl}oxy)methyl 4-(heptyloxy)benzoate], the ED50 with E. coli #311 (setting [1]) was 2 to 4 mg/kg; in the assay with E. coli #311 (setting [2]), above 32 mg/kg; with Staph. aureus Smith (setting [4]) it was 19.8 mg/kg; in the assay on Staph. aureus Smith (setting [5]), 1.59 mg/kg. The MIC in the assay on Staph. (setting [3]) is 0.5 to 1 µg/mL (≈ 0.569 to 1.14 µM); in the assay on Staph. (read-out: Minimum inhibitory concentration (MIC), Staph (Human Serum)) it was above 64 µg/mL; with E. coli (setting [6]), 0.5 to 1 µg/mL (≈ 0.569 to 1.14 µM); with E. coli (read-out: Range of MIC, E. coli (Water)) it was above 64 µg/mL.
